# Results from patent US20210386367A1, “DEVICES AND SYSTEMS FOR GASTROINTESTINAL MICROBIOME DETECTION AND MANIPULATION” (Progenity, Inc., priority 2018, published 2021).
# What was measured:
# [1] = test system: Streptococcus agalactiae clinical isolates; assay: MIC distribution against clinical isolates; assay type: cell-based; details: 20 S. agalactiae isolates
# Summary of the method: (§1)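 MIC is the lowest agent concentration preventing growth, determined by broth or agar dilution with serial compound dilutions and incubation under appropriate conditions (e.g., overnight at 37° C.). MIC90 is the concentration inhibiting ≥90% of isolates in the test population.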
# [2] = test system: Bacteroides fragilis clinical isolates; assay: MIC distribution against clinical isolates; assay type: cell-based; details: 30 B. fragilis isolates
# Summary of the method: as §1
# [3] = test system: Streptococcus spp. (S. pneumoniae ATCC 49619, S. pyogenes ATCC 49399, S. agalactiae ATCC 13813); details: cited from earlier work
# [4] = test system: B. fragilis ATCC 25285; assay: Time-kill assay; assay type: cell-based, Bacteroides fragilis; details: 2×, 4×, 8× MIC; 2, 6, 24, 48 hr
# [5] = test system: B. ovatus; assay: Spontaneous mutation frequency and mutation prevention concentration (MPC); assay type: cell-based; details: B. ovatus MMX 3503
# Text: As used herein, “spontaneous mutation frequency” refers to the rate at which mutations arise in a bacterium that can lead to resistance to develop to an antimicrobial agent. “Mutation prevention concentration” or “MPC” refers to the lowest concentration of antimicrobial agent above which the selective proliferation of resistant mutants is expected to occur only rarely.
# [6] = test system: Bacteroides non fragilis clinical isolates; assay: MIC distribution against clinical isolates; assay type: cell-based; details: 29 Bacteroides non-fragilis isolates
# [7] = test system: Prevotella spp. clinical isolates; assay: MIC distribution against clinical isolates; assay type: cell-based; details: 30 Prevotella spp. isolates
# [8] = test system: Enterobacteriaceae; details: cited from earlier work
# [9] = test system: E. coli (ATCC 25922, ATCC 35218, MMX 1312); details: cited from earlier work
# [10] = test system: Bacteroides spp. spontaneous mutants; details: B. fragilis ATCC 25285; CLSI QC range shown in parentheses; cited from earlier work
# [11] = test system: Bacteroides spp.; assay: Spontaneous mutation frequency assay; assay type: cell-based
# [12] = test system: B. fragilis ATCC 25285; details: B. fragilis MMX 123 ATCC 25285; cited from earlier work
structure (smiles),measurement,setting,value
C[C@@H](O)[C@H]1C(=O)N2C(C(=O)O)=C(S[C@@H]3CN[C@H](C(=O)N(C)C)C3)[C@H](C)[C@H]12 [meropenem],Cumulative percentage of isolates inhibited at MIC,[1]; MIC 0.015 μg/mL,20.0%
same,Number of test isolates at MIC,[1]; MIC 0.015 μg/mL,4
same,Cumulative percentage of isolates inhibited at MIC,[1]; MIC 0.03 μg/mL,95.0%
same,Number of test isolates at MIC,[1]; MIC 0.03 μg/mL,15
same,Cumulative percentage of isolates inhibited at MIC,[1]; MIC 0.06 μg/mL,100.0%
same,Number of test isolates at MIC,[1]; MIC 0.06 μg/mL,1
same,Cumulative percentage of isolates inhibited at MIC,[2]; MIC 1 μg/mL,80.0%
same,Number of test isolates at MIC,[2]; MIC 1 μg/mL,4
same,Cumulative percentage of isolates inhibited at MIC,[2]; MIC 8 μg/mL,83.3%
same,Number of test isolates at MIC,[2]; MIC 8 μg/mL,1
same,Cumulative percentage of isolates inhibited at MIC,[2]; MIC >8 μg/mL,100.0%
same,Number of test isolates at MIC,[2]; MIC >8 μg/mL,5
same,CLSI QC range (agar MIC),[3],0.03 to 0.25 µg/mL
same,time-kill kinetics outcome (bactericidal = ≥3 log reduction in CFU per mL),[4],"rapid bactericidal activity against this organism at 6, 24 and 48 hr at 8×MIC, 24 and 48 hr at 4×MIC and at 24 hr at 2×MIC"
same,MPC,[5],0.5 µg/mL
same,Average Count,"[5]; selection 4X MIC, 0.5 μg/mL",0 CFU
same,Count 1,"[5]; selection 4X MIC, 0.5 μg/mL",0 CFU
same,Count 2,"[5]; selection 4X MIC, 0.5 μg/mL",0 CFU
same,Spontaneous Mutation Frequency,"[5]; selection 4X MIC, 0.5 μg/mL",≤1.05 × 10^−10
same,Average Count,"[5]; selection 8X MIC, 1 μg/mL",0 CFU
same,Count 1,"[5]; selection 8X MIC, 1 μg/mL",0 CFU
same,Count 2,"[5]; selection 8X MIC, 1 μg/mL",0 CFU
same,Spontaneous Mutation Frequency,"[5]; selection 8X MIC, 1 μg/mL",≤1.05 × 10^−10
same,Cumulative percentage of isolates inhibited at MIC,[6]; MIC 0.06 μg/mL,6.9%
same,Number of test isolates at MIC,[6]; MIC 0.06 μg/mL,2
same,Cumulative percentage of isolates inhibited at MIC,[6]; MIC 0.5 μg/mL,75.9%
same,Number of test isolates at MIC,[6]; MIC 0.5 μg/mL,10
same,Cumulative percentage of isolates inhibited at MIC,[6]; MIC 1 μg/mL,82.8%
same,Number of test isolates at MIC,[6]; MIC 1 μg/mL,2
same,Cumulative percentage of isolates inhibited at MIC,[6]; MIC 2 μg/mL,93.1%
same,Number of test isolates at MIC,[6]; MIC 2 μg/mL,3
same,Cumulative percentage of isolates inhibited at MIC,[6]; MIC 4 μg/mL,96.6%
same,Number of test isolates at MIC,[6]; MIC 4 μg/mL,1
same,Cumulative percentage of isolates inhibited at MIC,[6]; MIC >8 μg/mL,100.0%
same,Number of test isolates at MIC,[6]; MIC >8 μg/mL,1
same,Cumulative percentage of isolates inhibited at MIC,[7]; MIC 0.015 μg/mL,16.7%
same,Number of test isolates at MIC,[7]; MIC 0.015 μg/mL,3
same,Cumulative percentage of isolates inhibited at MIC,[7]; MIC 0.03 μg/mL,36.7%
same,Number of test isolates at MIC,[7]; MIC 0.03 μg/mL,6
same,Cumulative percentage of isolates inhibited at MIC,[7]; MIC 0.06 μg/mL,76.7%
same,Number of test isolates at MIC,[7]; MIC 0.06 μg/mL,12
same,Cumulative percentage of isolates inhibited at MIC,[7]; MIC ≤0.008 μg/mL,6.7%
same,Number of test isolates at MIC,[7]; MIC ≤0.008 μg/mL,2
same,% S,[8],98.3%
same,MIC50,[8],≤0.12 µg/mL
same,CLSI QC range (agar MIC),[9],0.008 to 0.06 µg/mL
same,"MIC, CLSI QC range",[10],(0.03-0.25)^1 μg/mL
same,colonies on selection plates,[11],No Streptococcus spp. or Bacteroides spp. colonies were selected
same,CLSI QC range (MIC),[12],(0.03-0.25)^1 μg/mL
